One data set deals with T1, human FSH receptor (Homo sapiens, UniProt P23945).
T1 construct: host or cells: CHO-K1 (CHO FSH-R 6CRE-Luc, 1D7 cells)
T1 sequence (P23945 18-695): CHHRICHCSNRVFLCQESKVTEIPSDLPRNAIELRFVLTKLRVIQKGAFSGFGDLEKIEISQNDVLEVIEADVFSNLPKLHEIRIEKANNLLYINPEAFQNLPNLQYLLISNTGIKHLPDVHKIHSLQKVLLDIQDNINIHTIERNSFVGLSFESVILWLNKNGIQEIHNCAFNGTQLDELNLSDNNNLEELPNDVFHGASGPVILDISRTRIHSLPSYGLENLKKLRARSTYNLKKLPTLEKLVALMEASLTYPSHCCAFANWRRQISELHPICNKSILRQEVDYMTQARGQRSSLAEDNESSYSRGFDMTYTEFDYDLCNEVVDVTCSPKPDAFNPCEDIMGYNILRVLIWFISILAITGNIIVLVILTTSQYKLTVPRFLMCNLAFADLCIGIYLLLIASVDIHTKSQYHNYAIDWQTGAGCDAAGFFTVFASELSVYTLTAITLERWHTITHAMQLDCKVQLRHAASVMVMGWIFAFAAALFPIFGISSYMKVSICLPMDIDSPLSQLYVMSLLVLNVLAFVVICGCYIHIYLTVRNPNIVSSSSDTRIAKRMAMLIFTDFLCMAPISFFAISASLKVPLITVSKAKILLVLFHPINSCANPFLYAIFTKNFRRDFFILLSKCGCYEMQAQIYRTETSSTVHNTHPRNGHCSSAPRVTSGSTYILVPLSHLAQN
Nature of the data set: FSH receptor-dependent CRE-luciferase reporter gene assay (CHO FSH-R 6CRE-Luc cells). Type of data set: cell-based. To be noted: dose-response format in presence of EC50 of purified human FSH; * n=3, ** n=2 averages. From the text: FOLLICLE-STIMULATING HORMONE RECEPTOR-DEPENDENT CRE-LUCIFERASE REPORTER GENE ASSAY FOR THE IDENTIFICATION OF FOLLICLE-STIMULATING HORMONE (FSH) ANTAGONISTS
A Chinese hamster ovarian cell line that stably produces the human FSH receptor and a luciferase reporter gene regulated by cAMP response elements was used to identify and determine the relative potencies of human FSH receptor antagonists. See for example, Kelton, C. A., et al. Mol. Cell. Endocrinol. 89:141-151 (1992), Tilly, J. L., et al. Endocrinology 131:799-806(1992), and George, S. E., et al. J. Biomol. Screening 2:235-240 (1997).
Compound Vehicle: Stock compounds were solubilized in an appropriate vehicle, e.g., phosphate buffered saline (PBS) or dimethyl sulfoxide (DMSO), at 30 mM. The compounds subsequently were diluted in DMSO to working dilutions of 1 and 20 or 30 mM for 2-dose testing format and 1 μM-10 mM for dose-response format. The DMSO dilutions were diluted 500-fold in sterile growth medium [D-MEM/F-12 (GIBCO/BRL; Grand Island, N.Y.) containing 15 mM HEPES, 2 mM l-glutamine, pyridoxine hydrochloride, phenol red and 5% FETALCLONE® II (HyClone Laboratories, Inc; Logan, Utah), 0.2% DMSO, 100 units penicillin G/ml, and 100 μg streptomycin sulfate/ml (GIBCO/BRL)]. The concentration of the vehicle in each of the compound dilutions was the same.
Positive Controls: Purified human FSH (>98%) was purchased from Cortex Biochem, Inc. (San Leandro, Calif.) and 3-[(2S*,5R*)-5-{[2-(1H-Indol-3-yl)-ethylcarbamoyl]-methyl}-4-oxo-2-(5-phenylethynyl-thiophen-2-yl)-thiazolidin-3-yl]-benzamide (an FSH-R thiazolidinone antagonist) was prepared by processes described by R. A. Scheuerman et al. in U.S. Pat. No. 6,426,357 (Affymax).
The CHO FSH-R 6CRE-Luc cells (1D7 cells) were obtained from Affymax (Palo Alto, Calif.). These Chinese hamster ovary cells (CHO-K1) were engineered genetically to stably express the recombinant human FSH receptor gene and a luciferase reporter gene under the regulation of 6 copies of a cAMP response element. The cells were plated one day prior to treatment into 96-well white opaque plates at a density of 50,000 cells/100 μl/well in growth medium. On the day of treatment, the growth medium was removed from the wells by aspiration and 50 μl of fresh growth medium was added to each well. The cells were incubated at 37° C. in a humidified incubator with 5% CO2/95% air.
The treated cells were incubated for 4 hours at 37° C. in a humidified incubator with 5% CO2/95% air. At the end of the incubation period, luciferase activity was measured by chemiluminescence using a commercially available kit (LucScreen, Tropix, Inc., Bedford, Mass.) according to the manufacturer's specifications, except that Buffer 1 and Buffer 2 were mixed together in equal proportion prior to the addition of 100 μl of the combined reagents to each well. Chemiluminescence was detected using a luminometer (EG & G Berthold Microlumat LB 96 P, Wallac, Gaithersburg, Md.) with chemiluminescence measured for 1 sec/well. Background luminescence was measured for each well prior to the addition of the LucScreen reagent.
In the 96-well 2-dose format, each compound was tested in duplicate at each dose. […] One plate was used to test a maximum of 22 compounds.
The EC50 of purified human FSH alone was tested in triplicate with each test compound. The doses chosen to test each compound were extrapolated from the initial 2-dose screening process. Along with the test compounds, purified human FSH also was tested in a dose response (0.03, 0.1, 0.3, 1, 3, 10, and 30 ng/ml) for a positive control and quality control. One plate was used for 3 test compounds and the FSH positive control.
Luciferase activity is expressed as relative light units/sec/well. Luciferase activity in antagonist was compared to the appropriate negative and positive controls. For 2-dose testing, results are reported as luciferase activity and are expressed as percent inhibition of the response obtained from the EC50 of FSH.
(In general: Reporter assays use an easily measured gene product as a stand-in for the process of interest.)

A further data set deals with T2, hFSH-R (Homo sapiens, UniProt P23945).
T2 construct: expressed in transfected cells; host or cells: CHO-3D2 cells (CHO-K1 parental line)
T2 sequence (P23945 18-695): T1 sequence (P23945 18-695)
Nature of the data set: cAMP accumulation (RIA) in CHO-3D2 cells (hFSH-R), hFSH-induced. Type of data set: cell-based. To be noted: inhibition of cAMP accumulation induced by hFSH at EC20, CHO-3D2 cells. The procedure:
IN VITRO BIO-ASSAY OF AGONISTS AND ANTAGONISTS TO THE FSH RECEPTOR. SELECTIVITY AND DEPENDENCY OF AGONISTS AND ANTAGONISTS TO THE FSH RECEPTOR
Compound Vehicle: Stock compounds were solubilized in 100% DMSO (Sigma-Aldrich Chemical Co., St. Louis, Mo.) at a concentration of 30 mM. The compounds subsequently were diluted in sterile assay medium consisting of Opti-MEM® I (Invitrogen/Life Technologies, Carlsbad, Calif.) with 0.1% (w/v) BSA (Sigma-Aldrich) prior to use in the bio-assay. The final concentration of DMSO in the assay was 0.1%.
Plated cells are then incubated at 37° C. in a humidified 5% CO2/95% air atmosphere.
Assay: On the day of the assay, cells were washed three times with 100 μl/well of assay medium consisting of Opti-MEM® I (Invitrogen/Life Technologies) with 0.1% (w/v) BSA (Sigma-Aldrich). Medium was removed and 100 μl of assay medium was added to each well. Plates were incubated for an additional 30 minutes at 37° C. […] Reactions were terminated by the addition of 50 μl of 0.2N hydrochloric acid to each well and cAMP-accumulation was measured by radioimmunoassay (RIA) using a commercially available kit (Amersham Biosciences, Piscataway, N.J.).
All test compounds were evaluated in a dose-response paradigm ranging from 0.01 to 30 μM. Controls and test compounds were evaluated in quadruplicate in a 96-well format.
Along with the test compounds, FSH was run also as a postive control in the agonist mode using concentrations ranging from 0.1-1000 ng/ml.
Data were analyzed by one-way analysis of variance and significant differences between treatments and control determined by Least Significant Difference test.
Test compounds were compared to the effect of purified human FSH.
(In general: Cyclic AMP is a second messenger, typically raised through Gs and lowered through Gi signalling.)

Where only a bound is given, the exact number is not on record here.

The IC50 is the concentration that gives 50% inhibition. Broadly, the melting point is the temperature, or range, at which the solid turns liquid.

With `CN(C)c1ccc(C(=O)N2Cc3ccc(C(=O)NCc4cccnc4)n3Cc3ccccc32)cc1` [Example 84], the IC50 at human FSH receptor was 5820 nM; against hFSH-R, 1200 nM.
In the case of `CC(C)C(O)c1ccccc1-c1ccc(C(=O)N2Cc3ccc(C(=O)NCc4cccnc4)n3Cc3ccccc32)cc1` (stereo not shown) [Example 37], the values for the 50% inhibitory concentration (IC50) on human FSH receptor and against hFSH-R were 1640 nM and 490 nM, respectively.
Consider `Cc1cc(C(=O)N2Cc3ccc(C(=O)NCc4cccnc4)n3Cc3ccccc32)ccc1-c1cccs1` [Example 104], for which the half-maximal inhibitory concentration (IC50) on human FSH receptor stood at 3000 nM; against hFSH-R, 400 nM.
For `Cc1cc(C(=O)N2Cc3ccc(C(=O)NCc4cccnc4)n3Cc3ccccc32)ccc1-c1ccccc1C(F)(F)F` [Example 5] the same measures were 13800 nM and 1500 nM.
For `Cc1cc(C(=O)N2Cc3ccc(C(=O)NCc4cccnc4)n3Cc3ccccc32)ccc1-c1ccccc1Cl` [Example 21], the IC50 amounted to 2900 nM on human FSH receptor and 1000 nM against hFSH-R.
The matching figures for `O=C(NCc1cccnc1)c1ccc2n1Cc1ccccc1N(C(=O)c1ccc(-c3ccccc3O)cc1)C2` [Example 34]: 1550 nM and 590 nM.
In the case of `Cc1cc(Cl)ccc1OCC(=O)N1Cc2ccc(C(=O)NCc3cccnc3)n2Cc2ccccc21` [Example 139], the melting point came to 168 °C. Further, the IC50 at human FSH receptor is 9860 nM.
Compound `NS(=O)(=O)c1ccccc1-c1ccc(C(=O)N2Cc3ccc(C(=O)NCc4cccnc4)n3Cc3ccccc32)cc1` [Example 16] registered a melting point of 153 to 156 °C. Further, on human FSH receptor, the half-maximal inhibitory concentration (IC50) was determined as 994 nM.
In turn, `O=C(NCc1cccnc1)c1ccc2n1Cc1ccccc1N(C(=O)c1ccc(-c3ccccc3Cc3nnn[nH]3)cc1)C2` [Example 19] returned a melting point of 164 to 167 °C. In addition, the IC50 on human FSH receptor amounted to 2400 nM.
For `COC(=O)Cc1ccccc1-c1ccc(C(=O)N2Cc3ccc(C(=O)NCc4cccnc4)n3Cc3ccccc32)cc1` [Example 32], the figures for the half-maximal inhibitory concentration (IC50) on human FSH receptor and against hFSH-R were 156 nM and 20 nM, respectively.
As to `O=C(NCc1cccnc1)c1ccc2n1Cc1ccccc1N(C(=O)c1ccc(-c3ccncc3)cc1)C2` [Example 110], the melting point was in the range of 119 to 124 °C. The half-maximal inhibitory concentration (IC50) at human FSH receptor stood at 7650 nM.
For `CNC(=O)c1ccccc1-c1ccc(C(=O)N2Cc3ccc(C(=O)NCc4cccnc4)n3Cc3ccccc32)cc1` [Example 69], the melting point was in the range of 221 to 224 °C. Moreover, the IC50 on human FSH receptor is 14500 nM.
The matching figures for `O=C(NCc1cccnc1)c1ccc2n1Cc1ccccc1N(C(=O)c1cccc(F)c1)C2` [Example 78]: 101 °C and 18100 nM.
The compound `CC(C)(C)OC(=O)NCc1ccc(C(=O)N2Cc3ccc(C(=O)NCc4cccnc4)n3Cc3ccccc32)cc1` [Example 103] came in with a melting point of 171 °C. Besides, the IC50 on human FSH receptor is more than 30000 nM.
On to `O=C(NCc1cccnc1)c1ccc2n1Cc1ccccc1N(C(=O)c1ccc(-c3nccs3)cc1)C2` [Example 111], for which the melting point was 178 to 179 °C. In addition, the IC50 on human FSH receptor stood at 5480 nM.
As for `O=C(NCc1cccnc1)c1ccc2n1Cc1ccccc1N(Cc1ccc(-c3ccccc3)cc1)C2` [Example 73], the melting point was 161 to 165 °C (dec.). At human FSH receptor, the 50% inhibitory concentration (IC50) was 2000 nM.
Compound `O=C(NCc1cccnc1)c1ccc2n1Cc1ccccc1N(C(=O)c1ccc(-c3ccccc3CN3CCCC3)cc1)C2` [Example 41] displayed a melting point of 210 to 212 °C. The IC50 at human FSH receptor turned out to be 25100 nM.
With `O=C(O)c1ccccc1-c1ccc(C(=O)N2Cc3ccc(C(=O)NCc4cccnc4)n3Cc3ccccc32)cc1` [Example 65, 4′-{[3-{[(PYRIDIN-3-YLMETHYL)AMINO]CARBONYL}-5H-PYRROLO[2,1-C][1,4]BENZODIAZEPIN-10(11H)-YL]CARBONYL}-1,1′-BIPHENYL-2-CARBOXYLIC ACID], the melting point lay in the range of 189 to 191 °C. For the same compound, the concentration for half-maximal inhibition (IC50) at human FSH receptor is more than 30000 nM.
`O=C(NCc1cccnc1)c1ccc2n1Cc1ccccc1N(C(=O)c1ccc(Cl)c(Cl)c1)C2` [Example 81]: the melting point worked out at 192 °C. Further, the concentration for half-maximal inhibition (IC50) at human FSH receptor worked out at 18400 nM.
Consider `O=C(NCc1cccnc1)c1ccc2n1Cc1ccccc1N(C(=O)Cc1ccc(Cl)cc1)C2` [Example 142], for which the melting point is 83 °C. Further, the IC50 at human FSH receptor is 18500 nM.
The compound `O=C(NCc1cccnc1)c1ccc2n1Cc1ccccc1N(C(=O)c1ccc(F)cc1)C2` [Example 93] displayed a melting point of 171 to 173 °C. The IC50 at human FSH receptor is more than 30000 nM.
Consider `CC(C)(C)OC(=O)c1ccccc1-c1ccc(C(=O)N2Cc3ccc(C(=O)NCc4cccnc4)n3Cc3ccccc32)cc1` [Example 64], for which the melting point was 163 to 165 °C. Further, the IC50 on human FSH receptor was more than 30000 nM.
For `O=C(NCc1cccnc1)c1ccc2n1Cc1ccccc1N(C(=O)COc1ccc(Cl)cc1)C2` [Example 138] the same measures were 169 to 171 °C and 15800 nM.

The values are drawn from patent US7678787B2, “Pyrrolobenzodiazepine pyridine carboxamides and derivatives as follicle-stimulating hormone receptor antagonists” (Wyeth, priority 2005, dated 2010).
